Measurements from US10155948B2, “Pharmaceutical composition for preventing or treating diabetic complications and screening method for preventive or therapeutic agent for diabetic complications” (KANGWON NATIONAL UNIVERSITY UNIVERSITY-INDUSTRY COOPERATION …, priority 2016, dated 2018).

Legend:
HRECs = experiment: Visualization of actin filaments (stress fiber formation) in HRECs; type: cell-based, human; conditions: for VEGF-activated stress fiber formation: HRECs, 50 μM cystamine or 20 μM MDC 30 min, 10 ng/ml VEGF; for VEGF-induced stress fiber formation: summary statement, conditions not given
Method: (§1) Actin filaments and VE-cadherin were visualized as previously described. For visualization of actin filaments, cells were treated with 10 ng/ml VEGF for 1 hr at 37° C., fixed with 3.7% formaldehyde, and permeabilized with 0.2% Triton X-100. […] For visualization of VE-cadherin, cells were preincubated with the TGase2 inhibitors for 30 min and treated with 10 ng/ml VEGF for 90 min at 37° C. Following fixation and permeabilization, cells were incubated overnight with a monoclonal anti-VE-cadherin antibody (1:200, Santa Cruz Biotechnology) at 4° C. Cells were then probed with an FITC-conjugated goat anti-mouse antibody (1:200, Sigma) and VE-cadherin was visualized using confocal microscopy. Adherens junctions are represented by histograms of VE-cadherin as indicated by dotted lines and were quantitatively analyzed using peak fluorescence intensities of the histograms at the single-cell level for 10 randomly selected cells per experiment.
(§2) (A-C) HRECs were preincubated with 50 μM cystamine (Cys) and 20 μM MDC for 30 min and treated with 10 ng/ml VEGF. Stress fibers and VE-cadherin were stained and visualized by confocal microscopy as described in Research Design and Methods (n=3) ((A) Representative images of stress fibers. Scale Bar, 30 μm. (B) Representative images of VE-cadherin. Scale Bar, 10 μm). Adherens junctions are represented by histograms of VE-cadherin as indicated by dotted lines. (C) Adherens junctions were quantitatively analyzed using the peak fluorescence intensities of the histograms at the single-cell level. The results are expressed as mean±SD from three independent trials. (D) In-vitro endothelial cell monolayer permeability assay. HRECs on inserts of Transwell® Permeable Supports were incubated with 50 μM cystamine and 20 μM MDC for 30 min and treated with 10 ng/mL VEGF for 90 min. The amount of FITC-dextran that diffused to the lower chamber was measured by a microplate spectrofluorometer (n=3) (**p<0.01).
(§3) HRECs were transfected with 100 nM human TGase2-specific siRNA (TGase2 siRNA) or 100 nM control (Ctrl) siRNA. Endothelial cells were treated with 10 ng/ml VEGF and subjected to the confocal microscopic visualization of stress fibers (A) and VE-cadherin (B), as described in Research Design and Methods (n=3). (A) TGase2 siRNA inhibition of VEGF-induced formation of stress fibers. Scale bar, 30 μm. (B) Representative images of VE-cadherin and adherens junctions represented by VE-cadherin histograms. Scale bar, 10 μm. (C) Adherens junctions were quantitatively analyzed using peak fluorescence intensities of the histograms at the single-cell level. Results are expressed as mean±SD from three independent experiments (***p<0.001).

retinas of diabetic mice = experiment: Vascular leakage in retina of diabetic mice (fluorescein angiography, FITC-dextran); type: in vivo, mouse; conditions: for vascular leakage in diabetic retina (FITC-dextran extravasation): diabetic mice, intravitreal 2 μl 50 mM cystamine or 20 mM MDC, after 24 hrs, p<0.001, n=8; for increase of vascular leakage in retinas of diabetic mice: intravitreal injection, 0.5 mM dopamine, 500 mM cysteamine, n=6
Method: Two weeks after streptozotocin injection, diabetic mice were intravitreally injected with 2 μl of TGase inhibitors (50 mM cystamine or 20 mM MDC), 1 μM C-peptide (American Peptide Company, Sunnyvale, Calif.), ROS scavengers (2 μM Trolox or 500 mM NAC), or 65 μM mouse TG2-specific siRNA (Dharmacon, Lafayette, Colo.) into one eye and an equal volume of PBS or mouse control siRNA (Dharmacon, Lafayette, Colo.) into the contralateral eye. Non-diabetic mice were also intravitreally injected with 2 μl of PBS or mouse control siRNA into the eyes. After 24 hrs for inhibitors or C-peptide or 48 hrs for mouse TGase2 siRNA, mice were subjected to measurement of in-vivo TGase activity and vascular leakage from the retina.
Microvascular leakage in mouse retina was investigated via the fluorescein angiography method as previously described. In brief, 24 hrs or 48 hrs after intravitreal injection of TGase2 inhibitors or mouse TGase2 siRNA, respectively, mice were deeply anaesthetized and 1.25 mg of 500 kDa FITC-dextran (Sigma) was injected into the left ventricle. The dye was allowed to circulate for 5 min and mice were sacrificed via cervical dislocation. The eyes were enucleated and immediately fixed with 4% paraformaldehyde for 45 min. Retinas were dissected in the Maltese cross-configuration and flat-mounted onto glass slides. The superficial vessels of the retinas (n=8 per group) were observed by confocal microscopy and vascular leakage was quantitatively analyzed using the Fluoview software by determining the fluorescence intensities of FITC-dextran extravasated from the retina vessel.
Six-week-old male C57BL/6 mice were obtained from KOATECH (Pyeongtaek, Korea). TGase2^−/− mice (C57BL/6) were prepared by disrupting exons 5 and 6 of TGase2 by homologous recombination, as previously described. Diabetic mice were generated by a single intraperitoneal injection of streptozotocin (150 mg/kg body weight, Sigma) freshly prepared in 100 mM citrate buffer (pH 4.5) as previously described. Mice with non-fasting blood glucose levels greater than 19 mM, polyuria and glucosuria were considered diabetic. Experiments were performed in strict accordance with the guidelines of the Institutional Animal Care and Use Ethics Committee of Kangwon National University.
(A, B) Streptozotocin-diabetic mice were intravitreally injected with PBS (diabetic), cystamine (diabetic+Cys) or MDC (diabetic+MDC) into the eyes. Non-diabetic mice were also intravitreally injected with PBS into eyes (normal). […] (B) Retina permeability was quantified by measuring the fluorescence intensities of FITC-dextran in (A). […]
Dopamine and cysteamine were intravitreally injected into mouse eyes, and diabetic retinas were then analyzed for vascular leakage through fluorescein angiography.

VE-cadherin = experiment: Visualization of VE-cadherin (adherens junction disruption) in HRECs; type: cell-based, human; conditions: for VEGF-induced VE-cadherin breakdown: HRECs, 50 μM cystamine or 20 μM MDC 30 min, 10 ng/ml VEGF; for VEGF-induced VE-cadherin disruption: summary statement, conditions not given
Method: as §1, §2, §3

CN(C)c1cccc2c(S(=O)(=O)NCCCCCN)cccc12 [MDC, monodansylcadaverine]
VEGF-activated stress fiber formation (HRECs): prevented
vascular leakage in diabetic retina (FITC-dextran extravasation) (retinas of diabetic mice): prevented
VEGF-induced VE-cadherin breakdown (VE-cadherin): inhibited

NCCSSCCN [cystamine]
VEGF-activated stress fiber formation (HRECs): prevented
vascular leakage in diabetic retina (FITC-dextran extravasation) (retinas of diabetic mice): prevented
VEGF-induced VE-cadherin breakdown (VE-cadherin): inhibited

NCCS [cysteamine]
VEGF-induced stress fiber formation (HRECs): prevented
increase of vascular leakage in retinas of diabetic mice (retinas of diabetic mice): inhibited
VEGF-induced VE-cadherin disruption (VE-cadherin): prevented

NCCc1ccc(O)c(O)c1 [dopamine]
VEGF-induced stress fiber formation (HRECs): prevented
increase of vascular leakage in retinas of diabetic mice (retinas of diabetic mice): inhibited
VEGF-induced VE-cadherin disruption (VE-cadherin): prevented
